Results taken from US20210260066A1, “METHOD OF USING MEK INHIBITOR TO PREVENT RADIATION INDUCED FIBROSIS” (THOMAS JEFFERSON UNIVERSITY, priority 2018, published 2021).

Columns and labels:
C57BL/6 mice = settings: mouse, in vivo
Excerpt: C57BL/6 mice were used to develop a consistent model of intra-abdominal adhesion formation. Mouse cecums were gently abraded to promote adhesion formation which were subsequently analyzed histologically and immunochemically to characterize the expression of pro-fibrotic genes including (αSMA and FNEDA isoform, both of which were examined immunohistochemically and by quantitative polymerase chain reaction (qPCR). Trichrome staining was used to assess collagen deposition, a major protein component found in the extracellular matrix (ECM) at adhesion sites. Consistent intra-abdominal adhesions in mice were achieved by gentle cecal abrasion with mortality rates of <10%. Adhesions were seen as early as post-operative day 1 with extensive adhesions being formed and vascularized by day 5. Expression of the FNEDA isoform first and subsequently αSMA and collagen occurred during adhesion maturation.
Equal numbers of male and female C57BL/6 mice (18-25 g, 8-10 weeks of age, Jackson Laboratories, Bar Harbor, Me.) were used in initial experiments while only male mice were used in the drug escalation studies because they sustained greater accumulations of fibrotic tissue (data not shown). […]

[1] = tested on: rat peritoneal mesothelial cells; assay: TGF-β induced mesothelial-mesenchymal transition (MMT) of rat peritoneal mesothelial cells; assay type: cell-based
Description: Isolated mesothelial cells were incubated under control conditions without either TGF-β or trametinib, with TGF-β or trametinib alone, or with both TGF-β and trametinib for five days.
These increases in gene expression of phosphor-Erk1/2, FNEDA, αSMA and p-SMAD2 (linker) were blocked by as low a concentration of trametinib as 2 nM.
The experiments in this study were approved by the Institutional Animal Care and Use Committee at Thomas Jefferson University, and were performed in accordance with the National Institutes of Health guidelines for the care and handling of laboratory animals. […]
RPMCs were lysed in ice-cold modified RIPA buffer with protease inhibitor cocktail (50 mM/L Tris-HCl, 1% NP-40, 0.25% Na-deoxycholate, 150 mM/L NaCl, 1 mM/L EDTA, 1 mmol/L phenylmethyl sulfonyl fluoride, 1 mM/L sodium orthovanadate, 1 mM/L NaF, pH 7.4). Equivalent amounts of homogenate (50 μg/well), determined by Coomassie blue assay, were separated by sodium dodecyl sulfate polyacrylamide gel electrophoresis (SDS-PAGE), transferred to either nitrocellulose or PVDF membranes, and detected by SuperSignal West Femto or Pico chemiluminescence.

mouse lung fibroblasts = assay: Pro-fibrotic gene expression (qPCR) in bleomycin-treated mouse lung fibroblasts; assay type: cell-based; settings: bleomycin alone vs vehicle control
Excerpt: Indeed, FIGS. 1A, 1B, and 1C depict the ability of trametinib to modulate the expression of pro-fibrotic genes in mouse lung fibroblasts. The three graphs represent expression of (type I collagen and FNEDA) and αSMA. Lung fibroblasts isolated form mouse lungs were placed in cell culture and treated either with saline (control) or bleomycin dissolved in saline and 3 different concentrations of trametinib (2.5, 5 and 10 nmolar) dissolved in DMSO. After treatment with the drug, RNA was extracted and quantified by qPCR. mRNAs for type I collagen (Collal), the FNEDA and αSMA are shown. Control values in FIGS. 1 A, B, and C were set to 100%.

| Molecule | Wound healing of abdominal muscles and skin at the laparotomy site (C57BL/6 mice) | Concentration blocking the increases of phosphor-Erk1/2, FNEDA, αSMA and p-SMAD2 (linker) ([1]; TGF-β-treated cells) | Effect of trametinib alone on mesothelial cells (toxicity, appearance) ([1]; trametinib alone, five days) | Increase in expression of Collal mRNA (mouse lung fibroblasts) | Increase in expression of FNEDA mRNA (mouse lung fibroblasts) | Increase in expression of αSMA mRNA (mouse lung fibroblasts) |
| --- | --- | --- | --- | --- | --- | --- |
| CC(=O)Nc1cccc(-n2c(=O)n(C3CC3)c(=O)c3c(Nc4ccc(I)cc4F)n(C)c(=O)c(C)c32)c1 [trametinib] | no impairment | ≤ 2 nM | no effect and no apparent toxic effects | – | – | – |
| bleomycin | – | – | – | more than 200% | ~150% | more than 200% |
